Test results from PubChem BioAssay (NCI).
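Tested at 5 concentrations; 48 h exposure; 96-well plates; endpoints linearly interpolated, else capped at highest concentration. The concentration for full growth arrest is given as TGI.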

Experiments:
Assay in all cases: growth of human tumour cells (NCI), 48 h
786-0 renal = test system: 786-0 renal
A498 renal = test system: A498 renal
A549 NSCLC = test system: A549 NSCLC
ACHN renal = test system: ACHN renal
CAKI-1 renal = test system: CAKI-1 renal
COLO 205 colon = test system: COLO 205 colon
DU-145 prostate = test system: DU-145 prostate
EKVX NSCLC = test system: EKVX NSCLC
HCC-2998 colon = test system: HCC-2998 colon
HCT-116 colon = test system: HCT-116 colon
HCT-15 colon = test system: HCT-15 colon
HL-60(TB) leukemia = test system: HL-60(TB) leukemia
HOP-62 NSCLC = test system: HOP-62 NSCLC
HS 578T breast = test system: HS 578T breast
HT29 colon = test system: HT29 colon
IGROV1 ovarian = test system: IGROV1 ovarian
K-562 leukemia = test system: K-562 leukemia
KM12 colon = test system: KM12 colon
LOX IMVI melanoma = test system: LOX IMVI melanoma
M14 melanoma = test system: M14 melanoma
MALME-3M melanoma = test system: MALME-3M melanoma
MCF7 breast = test system: MCF7 breast
MDA-MB-231 breast = test system: MDA-MB-231 breast
MDA-MB-435 = test system: MDA-MB-435
MOLT-4 leukemia = test system: MOLT-4 leukemia
NCI-H226 lung = test system: NCI-H226 lung
NCI-H23 lung = test system: NCI-H23 lung
NCI-H460 lung = test system: NCI-H460 lung
NCI-H522 lung = test system: NCI-H522 lung
NCI/ADR-RES ovarian = test system: NCI/ADR-RES ovarian
OVCAR-3 ovarian = test system: OVCAR-3 ovarian
OVCAR-4 ovarian = test system: OVCAR-4 ovarian
OVCAR-5 ovarian = test system: OVCAR-5 ovarian
OVCAR-8 ovarian = test system: OVCAR-8 ovarian
PC-3 prostate = test system: PC-3 prostate
RPMI-8226 leukemia = test system: RPMI-8226 leukemia
SF-268 CNS = test system: SF-268 CNS
SF-295 CNS = test system: SF-295 CNS
SF-539 CNS = test system: SF-539 CNS
SK-MEL-2 melanoma = test system: SK-MEL-2 melanoma
SK-MEL-28 melanoma = test system: SK-MEL-28 melanoma
SK-MEL-5 melanoma = test system: SK-MEL-5 melanoma
SN12C renal = test system: SN12C renal
SNB-19 CNS = test system: SNB-19 CNS
SNB-75 CNS = test system: SNB-75 CNS
SR leukemia = test system: SR leukemia
SW-620 colon = test system: SW-620 colon
T-47D breast = test system: T-47D breast
TK-10 renal = test system: TK-10 renal
U251 CNS = test system: U251 CNS
UACC-257 melanoma = test system: UACC-257 melanoma
UACC-62 melanoma = test system: UACC-62 melanoma
UO-31 renal = test system: UO-31 renal
BT-549 breast = test system: BT-549 breast
CCRF-CEM leukemia = test system: CCRF-CEM leukemia
HOP-92 NSCLC = test system: HOP-92 NSCLC
RXF 393 renal = test system: RXF 393 renal
SK-OV-3 ovarian = test system: SK-OV-3 ovarian

Measured: TGI

N#CC(c1ccccc1)c1cccc2ccccc12 (stereo not drawn)
66 µM: KM12 colon
39.4 µM: SR leukemia
57.7 µM: HL-60(TB) leukemia
76.5 µM: A498 renal
56.2 µM: SK-MEL-2 melanoma
81.8 µM: HCC-2998 colon
98.8 µM: SF-268 CNS
67.3 µM: UACC-257 melanoma
86.6 µM: OVCAR-3 ovarian
50.8 µM: LOX IMVI melanoma
65.1 µM: A549 NSCLC
76.4 µM: OVCAR-8 ovarian
53.9 µM: NCI-H522 lung
71.6 µM: PC-3 prostate
50.7 µM: MALME-3M melanoma
52.1 µM: CAKI-1 renal
44.1 µM: MDA-MB-435
92.4 µM: MCF7 breast
67.9 µM: RPMI-8226 leukemia
96.4 µM: M14 melanoma
57.6 µM: MOLT-4 leukemia
34.3 µM: SK-MEL-5 melanoma
> 100 µM: 786-0 renal | ACHN renal | COLO 205 colon | DU-145 prostate | EKVX NSCLC | HCT-116 colon | HCT-15 colon | HOP-62 NSCLC | HS 578T breast | HT29 colon | IGROV1 ovarian | K-562 leukemia | MDA-MB-231 breast | NCI-H226 lung | NCI-H23 lung | NCI-H460 lung | NCI/ADR-RES ovarian | OVCAR-4 ovarian | OVCAR-5 ovarian | SF-295 CNS | SF-539 CNS | SK-MEL-28 melanoma | SN12C renal | SNB-19 CNS | SNB-75 CNS | SW-620 colon | T-47D breast | TK-10 renal | U251 CNS | UACC-62 melanoma | UO-31 renal

NC(=O)c1ccccc1NC(=O)C(=O)C(c1cnc2ccc([N+](=O)[O-])cc2n1)[N+](=O)[O-] (stereo not drawn)
> 100 µM: 786-0 renal | A498 renal | A549 NSCLC | ACHN renal | BT-549 breast | CAKI-1 renal | CCRF-CEM leukemia | EKVX NSCLC | HCC-2998 colon | HCT-116 colon | HCT-15 colon | HL-60(TB) leukemia | HOP-62 NSCLC | HOP-92 NSCLC | HS 578T breast | HT29 colon | IGROV1 ovarian | K-562 leukemia | KM12 colon | LOX IMVI melanoma | M14 melanoma | MALME-3M melanoma | MCF7 breast | MDA-MB-231 breast | MDA-MB-435 | MOLT-4 leukemia | NCI-H226 lung | NCI-H23 lung | NCI-H460 lung | NCI-H522 lung | NCI/ADR-RES ovarian | OVCAR-3 ovarian | OVCAR-4 ovarian | OVCAR-5 ovarian | OVCAR-8 ovarian | PC-3 prostate | RPMI-8226 leukemia | RXF 393 renal | SF-268 CNS | SF-295 CNS | SF-539 CNS | SK-MEL-2 melanoma | SK-MEL-28 melanoma | SK-MEL-5 melanoma | SK-OV-3 ovarian | SN12C renal | SNB-19 CNS | SNB-75 CNS | SW-620 colon | T-47D breast | TK-10 renal | U251 CNS | UACC-257 melanoma | UACC-62 melanoma | UO-31 renal

Cc1nnc2c3c(-c4ccccc4)c(-c4ccccc4)oc3nc(N(C)C)n12
72.4 µM: SNB-75 CNS
82.3 µM: RPMI-8226 leukemia
46.9 µM: HL-60(TB) leukemia
67.2 µM: SR leukemia
60.5 µM: HCC-2998 colon
> 100 µM: 786-0 renal | A498 renal | A549 NSCLC | ACHN renal | CAKI-1 renal | CCRF-CEM leukemia | COLO 205 colon | DU-145 prostate | EKVX NSCLC | HCT-116 colon | HCT-15 colon | HOP-92 NSCLC | HS 578T breast | HT29 colon | IGROV1 ovarian | K-562 leukemia | KM12 colon | LOX IMVI melanoma | M14 melanoma | MCF7 breast | MDA-MB-231 breast | MDA-MB-435 | MOLT-4 leukemia | NCI-H226 lung | NCI-H23 lung | NCI-H522 lung | NCI/ADR-RES ovarian | OVCAR-4 ovarian | OVCAR-5 ovarian | OVCAR-8 ovarian | RXF 393 renal | SF-268 CNS | SF-295 CNS | SF-539 CNS | SK-MEL-28 melanoma | SK-MEL-5 melanoma | SK-OV-3 ovarian | SNB-19 CNS | SW-620 colon | T-47D breast | TK-10 renal | U251 CNS | UACC-257 melanoma | UACC-62 melanoma | UO-31 renal
